Our source for the inhibition and IC50 values is patent US6900200B2, “Tricyclic hydroxy carboxamides and derivatives thereof tocolytic oxytocin receptor antagonists” (Wyeth, priority 2001, dated 2005).

In the test the target is T1, human vasopressin V1a receptor subtype (Homo sapiens, UniProt P37288).
T1 construct: host or cells: CHO cells; pZeoSV vector for the Thibonnier line
In words: Vasopressin binding in CHO cell membranes expressing human vasopressin V1a subtype receptors ([3H]Manning ligand radioligand binding). Conditions: for inhibition at 0.1 µM: @ 100 nM; for IC50: value printed in parentheses. The text has this: Vasopressin Binding in Chinese Hamster Ovary Cell Membranes Expressing Human Vasopressin V1a Subtype Receptors
Chinese hamster ovary cells (CHO cells) stably transfected with the human vasopressin V1a subtype receptors were either obtained from BioSignal Inc., 1744 rue Williams, Montreal, Quebec, Canada or obtained from M. Thibonnier, Case Western Reserve University School of Medicine, Cleveland, Ohio.
A. Passaging and Amplification of Cells
CHO cells transfected with the human vasopressin V1a subtype receptors obtained from M. Thibonnier (pZeoSV vector) are allowed to grow to confluency (approx. >90%) in T-150 flasks under sterile conditions, in a cell culture medium of F-12 Nutrient Mixture (HAM) with L-glutamine (Gibco Cat. #11765-054) containing 15 mM HEPES (Gibco Cat. #15630-080), 1% antibiotic/antimycotic (add 5 mL 100×, Gibco Cat. #15240-062 per 500 mL F-12), 250 μg/mL Zeocin (add 1.25 mL of 100 mg/mL Invitrogen R-250-01 per 500 mL F-12) and 10% Fetal Bovine Serum (Qualified, heat inactivated, Gibco Cat. #16140-063). The medium is removed by aspiration and the cells are washed with 10 mL of Hank's Balanced Salt solution (Gibco Cat. #14175-095). The salt solution is removed by aspiration and the cells are trypsinized with 5 mL of trypsin-EDTA (0.05% trypsin, 0.53 mM EDTA-4Na, Gibco Cat. #25300-070) for 1 min. The trypsin is removed by aspiration and the cells dislodged by tapping. Cell Culture medium (e.g. 30 mL for 1:30 split) is immediately added and mixed well to inactivate trypsin. 1 mL of detached cells is added to new culture flasks containing fresh cell culture medium (e.g., into 25 mL per T-150 flask), and mixed gently. The cells are incubated at 37° C. in 5% CO2. The medium is changed at 3 to 4 days interval (or as appropriate). The cells grow to confluency (approx. >75%-95%) within 7-8 days. All steps are done under sterile conditions.
The cells are washed twice gently with Hank's Balanced Salt solution (e.g,. use 10 mL per T-150 flask). The excess is removed and the cells are bathed for 15-30 min. in an enzyme-free Cell Dissociation Buffer (e.g. use 8 mL Hank's Based, Gibco Cat. #13150-016 per T-150 flask) until the cells are loosened. The contents are transferred to centrifuge tubes (50 mL) kept in an ice bath. All subsequent steps are done at 4° C. The tubes are centrifuged at 300×g for 15 min (1380 rpm on SORVAL, Model RT6000D, using the rotor for 50 mL tubes). The supernatant is discarded and the cells suspended in homogenizing buffer(10 mM Tris-HCl containing 0.25 M sucrose and 1 mM EDTA, pH 7.4) ensuring that the volume of the buffer is about ten times the volume of the cell pellet. The cells are pooled into a centrifuge tube (50 mL) and homogenized with Polytron at setting 6 for 10 sec. The homogenate is transferred into a Potter-Elvjehm homogenizer and homogenized with 3 strokes. The homogenate is centrifuged at 1500×g for 10 min at 4° C. (3100 rpm using SORVAL, model RT6000D, using the rotor for 50 mL tubes). The pellet is discarded. The supernatant is centrifuged at 100,000×g for 60 min. at 4° C. (Beckman L8-80M ultracentrifuge; spin at 37,500 rpm with rotor type 70 Ti for 50 mL tubes; 38,000 rpm with type 80Ti for 15 mL tubes; or 35,800 rpm with rotor type 45Ti). The supernantant is discarded and the pellet suspended in 3 to 4 mL of Tris buffer (50 mM TRIS—HCl, pH 7.4). The protein content is estimated by the Bradford or Lowry method. The volume of the membrane suspension is adjusted with the membrane buffer (50 mM Tris-HCl containing 0.1% BSA and 0.1 mM PMSF) to give 3.0 mg/mL (or as appropriate) of protein. The membranes are aliquoted and stored at −70° C.
C. Radioligand Binding Assay […]

T1 sequence (P37288 whole entry): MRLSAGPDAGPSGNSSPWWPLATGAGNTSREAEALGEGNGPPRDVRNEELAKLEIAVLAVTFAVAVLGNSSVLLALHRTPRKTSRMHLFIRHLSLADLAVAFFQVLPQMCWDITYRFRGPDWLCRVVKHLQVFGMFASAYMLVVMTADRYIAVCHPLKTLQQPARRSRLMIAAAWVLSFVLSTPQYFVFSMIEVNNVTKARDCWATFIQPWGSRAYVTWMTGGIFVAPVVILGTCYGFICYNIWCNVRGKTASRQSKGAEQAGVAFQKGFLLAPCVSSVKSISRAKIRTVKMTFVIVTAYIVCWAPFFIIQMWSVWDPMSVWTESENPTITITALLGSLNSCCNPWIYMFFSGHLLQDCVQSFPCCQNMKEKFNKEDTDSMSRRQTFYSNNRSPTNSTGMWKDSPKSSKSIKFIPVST

For `COc1ccccc1-c1ccc(C(=O)N2Cc3ccc(C(=O)N(C)C[C@H](O)CO)n3Cc3ccccc32)cc1C` (single isomer, unassigned) [Example 15], testing at 0.1 µM gave an inhibition of 59%.

As for `Cc1cc(C(=O)N2Cc3ccc(C(=O)NC(CO)(CO)CO)n3Cc3ccccc32)ccc1-c1ccccc1C(F)(F)F` [Example 3, 10-[(2-Methyl-2′-trifluoromethyl-[1,1′-biphenyl]-4-yl)carbonyl]-10,11-dihydro-5H-pyrrolo[2,1-c][1,4]benzodiazepine-3-carboxylic acid (2-hydroxy-1,1-bis-hydroxymethyl-ethyl)-amide], the inhibition at 0.1 µM worked out at 7%. Same read-out and setting: the value for `COc1cc2c(cc1OC)N(C(=O)c1ccc(-c3ccccc3C(F)(F)F)c(C)c1)Cc1ccc(C(=O)N(C)CC(O)CO)n1C2` (stereo not drawn) [Example 18, N-(2,3-Dihydroxypropyl)-7,8-dimethoxy-N-methyl-10-{[2-methyl-2′-trifluoromethyl-[1,1′-biphenyl]-4-yl]carbonyl}-10,11-dihydro-5H-pyrrolo[2,1-c][1,4]benzodiazepine-3-carboxamide] was 0%.

In the case of “{(2S)-1-[(10-{[2-Methoxy-2(trifluoromethyl)[1,1′-biphenyl]-4-yl]carbonyl}-10,11-dihydro-5H-pyrrolo[2,1-c][1,4]benzodiazepin-3-yl)carbonyl]pyrrolidin-2-yl}-methanol [Example 36]”, the IC50 was found to be 1510 nM. The compound `COc1cc(C(=O)N2Cc3ccc(C(=O)N4CCN(CCO)CC4)n3Cc3ccccc32)ccc1-c1cccc2ccccc12` [Example 41, [4-(2-Hydroxyethyl)-1-piperazinyl]{10-[3-methoxy-4-(1-naphthyl)benzoyl]-10,11-dihydro-5H-pyrrolo[2,1-c][1,4]benzodiazepin-3-yl}methanone] came in with an inhibition at 0.1 µM of 12%. For the compound `COc1ccccc1-c1ccc(C(=O)N2Cc3ccc(C(=O)N4CCN(CCO)CC4)n3Cc3ccccc32)cc1OC` [Example 43, {10-[(2,2′-Dimethoxy[1,1′-biphenyl]-4-yl)carbonyl]-10,11-dihydro-5H-pyrrolo[2,1-c][1,4]benzodiazepin-3-yl}[4-(2-hydroxyethyl)-1-piperazinyl]methanone], 0.1 µM produced 1% inhibition. The same measure, in the same setting: for `COc1cc(C(=O)N2Cc3ccc(C(=O)N4CCN(CCO)CC4)n3Cc3ccccc32)ccc1-n1c(C)ccc1C` [Example 52, {10-[4-(2,5-Dimethyl-1H-pyrrol-1-yl)-3-methoxybenzoyl]-10,11-dihydro-5H-pyrrolo[2,1-c][1,4]benzodiazepin-3-yl}[4-(2-hydroxyethyl)-1-piperazinyl]methanone] the value was 7%.

For `COc1cc(C(=O)N2Cc3ccc(C(=O)N(C)CC(O)CO)n3Cc3ccccc32)ccc1-c1ccccc1C(F)(F)F` (stereo not drawn) [Example 21, N-(2,3-Dihydroxypropyl)-10-{[2-methoxy-2′-trifluoromethyl-[1,1′-biphenyl]-4-yl]carbonyl}-N-methyl-10,11-dihydro-5H-pyrrolo[2,1-c][1,4]benzodiazepine-3-carboxamide], the IC50 was determined as 376 nM. Same read-out and setting: the value for `COc1cc(C(=O)N2Cc3ccc(C(=O)N(C)CC(O)CN(C)C)n3Cc3ccccc32)ccc1-c1ccccc1C(F)(F)F` (stereo not drawn) [Example 22, N-[(3-Dimethylamino)-2-hydroxy-propyl]-10-{[2-methoxy-2′-trifluoromethyl-[1,1′-biphenyl]-4-yl]carbonyl}-N-methyl-10,11-dihydro-5H-pyrrolo[2,1-c][1,4]benzodiazepine-3-carboxamide] was 227 nM; that for `CC(=O)OCC(CN(C)C(=O)c1ccc2n1Cc1ccccc1N(C(=O)c1ccc(-c3ccccc3C(F)(F)F)c(C)c1)C2)OC(C)=O` (stereo not drawn) [Example 13, 2-(Acetyloxy)-1-({methyl[(10-{[2-methyl-2′-trifluoromethyl-[1,1′-biphenyl]-4-yl]carbonyl}-10,11-dihydro-5H-pyrrolo[2,1-c][1,4]benzodiazepin-3-yl)carbonyl]amino}methyl)ethyl acetate] was 1200 nM; that for `Cc1cc(C(=O)N2Cc3ccc(C(=O)N(CCO)CCO)n3Cc3ccccc32)ccc1-c1ccccc1C(F)(F)F` [Example 1, 10-[(2-Methyl-2′-trifluoromethyl-[1,1′-biphenyl]-4-yl)carbonyl]-10,11-dihydro-5H-pyrrolo[2,1-c][1,4]benzodiazepine-3-carboxylic acid bis-(2-hydroxy-ethyl)-amide] was 1390 nM. Same read-out and setting: the value for `COc1cc(-c2ccccc2C)c(Cl)cc1C(=O)N1Cc2ccc(C(=O)N3CCN(CCO)CC3)n2Cc2ccccc21` [Example 39, {10-[(6-Chloro-3-methoxy-2′-methyl[1,1′-biphenyl]-4-yl)carbonyl]-10,11-dihydro-5H-pyrrolo[2,1-c][1,4]benzodiazepin-3-yl}[4-(2-hydroxyethyl)-1-piperazinyl]methanone] was 759 nM. Regarding `COC[C@@H](O)CN1CCN(C(=O)c2ccc3n2Cc2ccccc2N(C(=O)c2ccc(-c4ccccc4C(F)(F)F)c(C)c2)C3)CC1` [Example 9, [3-({4-[(2S)-2-Hydroxy-3-methoxypropyl]-1-piperazinyl}carbonyl)-5H-pyrrolo[2,1-c][1,4]benzodiazepin-10(11H)-yl][2-methyl-2′-trifluoromethyl-[1,1′-biphenyl]-4-yl]methanone], the IC50 is 2010 nM. Regarding `COc1ccccc1-c1ccc(C(=O)N2Cc3ccc(C(=O)N(C)C[C@H](O)[C@@H](O)[C@H](O)[C@H](O)CO)n3Cc3ccccc32)cc1C` [Example 17, 10-[(2′-Methoxy-2-methyl-[1,1′-biphenyl]-4-yl)carbonyl]-10,11-dihydro-5H-pyrrolo[2,1-c][1,4]benzodiazepine-3-carboxylic acid methyl-[(2S,3R,4R, 5R)-2,3,4,5,6-pentahydroxy-hexyl)-amide], the IC50 is 227 nM.

Turning to `Cc1cc(C(=O)N2Cc3ccc(C(=O)N(C)C[C@@H]4OC(=O)O[C@H]4[C@H](O)[C@H]4COC(=O)O4)n3Cc3ccccc32)ccc1-c1ccccc1C(F)(F)F` [Example 12, N-[((4S,5S)-5-{(R)-Hydroxy[(4R)-2-oxo-1,3-dioxolan-4-yl]methyl}-2-oxo-1,3-dioxolan-4-yl)methyl]-N-methyl-10-{[2-methyl-2′-(trifluoromethyl)[1,1′-biphenyl]-4-yl]carbonyl}-10,11-dihydro-5H-pyrrolo[2,1-c]benzodiazepine-3-carboxamide], the IC50 was found to be 1620 nM. For the compound `Cc1cc(C(=O)N2Cc3ccc(C(=O)N(C)CC(O)CO)n3Cc3ccccc32)ccc1-c1ccccc1C(F)(F)F` (stereo not drawn) [Example 2, 10-[(2-Methyl-2′-trifluoromethyl-[1,1′-biphenyl]-4-yl)carbonyl]-10,11-dihydro-5H-pyrrolo[2,1-c][1,4]benzodiazepine-3-carboxylic acid (2,3-dihydroxy-propyl)-methyl-amide], the IC50 is 790 nM. `O=C(c1ccc2n1Cc1ccccc1N(C(=O)c1ccc(-c3cccc4ccccc34)cc1Cl)C2)N1CCN(CCO)CC1` [Example 25, 2-{4-[10-{[2-Chloro-4-(naphthalen-1-yl)phenyl]carbonyl}-(10,11-dihydro-5H-pyrrolo[2,1-c][1,4]benzodiazepin-3-yl)carbonyl]piperazine-1-yl}-1-hydroxyethane]: the inhibition at 0.1 µM came out at 5%.

With `COc1ccccc1-c1ccc(C(=O)N2Cc3ccc(C(=O)N(C)CC(O)CO)n3Cc3ccccc32)cc1C` (stereo not drawn) [Example 14, 10-[(2′-Methoxy-2-methyl-[1,1′-biphenyl]-4-yl)carbonyl]-10,11-dihydro-5H-pyrrolo[2,1-c][1,4]benzodiazepine-3-carboxylic acid (2,3-dihydroxy-propyl)-methyl-amide], the IC50 is 144 nM.

As usually defined, the inhibition is the relative decrease from the control value, in per cent. As usually defined, the IC50 is the point on the concentration scale where inhibition reaches its midpoint.
